Patent publication US5948814A, “Genistein for the treatment of cystic fibrosis” (priority 1998, dated 1999)
Where two headings read alike, the source gives them in different places.

Columns and labels:
[1] = target: T1, wt-CFTR (Homo sapiens, UniProt P13569); details: for TC1 (short mean closed time) / TC2 (long mean closed time) / TO1 (mean open time) / TO2 (long mean open time): Table 1
Description: (A): continuous recordings, 4 minutes in length, of a cell-attached patch of wt-CFTR in the presence of 10 μM forskolin or 10 μM forskolin+50 μM genistein are shown. […] (B): dwell-time analysis of (A).
A continuous recording, 12 minutes in length, of cell-attached patch is shown. wt-CFTR was activated with 50 μM forskolin prior to start of trace and was present throughout recording Genistein (50 μM) was present as indicated.
Electrophysiology: CFTR channel currents were recorded at room temperature (~22° C.) with a patch-clamp amplifier (EPC-9, Heka Electronic), filtered at 100 Hz with a built-in three-pole Bessel filter, and stored on videotapes. Data were subsequently refiltered at 25 Hz with an eight-pole Bessel filter (Frequency Device, Havervill, Mass.) and captured onto a hard disk at a sampling rate of 50 Hz. […] Patch-clamp electrodes were made from Corning 7052 glass capillaries (Warner Instrument, Hammed, Conn.). The pipette resistance was usually 3-5 M.OMEGA., and the seal resistance was >20 G.OMEGA.. The pipette solution contained (in mM) 140 N-methyl-D-glucamine chloride (NMDG-C1), 2 MgCl2, 5Ca Cl2, and 10 HEPES (pH 7.4 with NMDG). The superfusion solution contained (in mM) 150 […], 2 MgCl2, 1 EGTA, 5 glucose, and 5 HEPES (pH 7.4 with NaOH). In excised inside-out patch experiments, the bath solution contained (in mM) 130 MNDG-Cl, 10 EGTA, 10 HEPES, 20 tetraethylammonium chloride, 8 Tris, and 2 MgCl2 (pH 7.4 with NMDG). Pipette potential was held at 50 mV relative to the bath. Downward deflections represent channel opening.
Statistics: Mean currents and variance were estimated with Igor (Wavemetrics, Lake Oswego, Oreg.). Parameters for mean current-variance relationships and dose-response curves were obtained from least-square fitting with Sigmaplot (Jandel, San Rafael, Calif.). Po was calculated from patches containing a single channel by dividing the […]. Dwell-time analysis was described previously [Baukrowitz et al., 1994]. Calculated values are presented as means±SE. Comparisons among data were made using the Student's t-test with P<0.05 considered significant.
To determine how genistein increases Po, the effects of genistein on single-channel kinetics were examined in cell-attached patches using dwell-time analysis. […] Both traces were recorded in the presence of 10 μM forskolin; 50 μM genistein was added prior to the start of the lower trace.

[2] = target: T1, wt-CFTR; experiment: cell-based; type: cell-based; parameters: expressed in transfected cells
Description: FIG. 1 is a graph representing the dose-responses relationship for forskolin-dependent I^- efflux. Peak rates of I^- efflux in the presence (closed symbols) or absence (open symbols) of 50 μM genistein were obtained with NIH/3T3-cystic fibrosis transmembrane conductance regulator (NIH/3T3-CFTR) (circles) and NTH/3T3-Δphenylalanine 508 (ΔF508) cells (triangles). NIH/3T3-CFTR cells are cultured at 37° C. NIH/3T3-Δ508 cells are cultured at 27° C. for 3 days prior to assay. Data are mean values±SE (n>5). Lines were fit by nonlinear least squares.
Cell culture: NIH/3T3-CFTR, NIH/3T3-ΔF508, and NIH/3T3 mock cells (generous gifts from Dr. Richard Mulligan of Children's Hospital and Medical Center, Harvard Medical School) were grown as described [Bradbury et al., 1992] at 37° C. and 5% CO2 in Dulbecco's modified Eagle's medium-H21 supplemented with 10% new-born calf serum, 4 mM glutamine, 25 mM glucose, 100 μg/ml penicillin, 100 μg/ml streptomycin, and 50 μg/ml gentamicin. Cells were maintained in T75 flasks, passaged at 90-95% confluency, and split one to four. For measurements of I^- efflux and in vivo phosphorylation, cells were seeded onto 35-mm dishes at […]. For patch-clamp experiments, cells were grown on coverglass chips in 35-mm culture dishes. Media were replaced 24 hours after plating and thereafter every 48 hours. In all cases, media were changed on the day before I^- efflux studies, NIH/3T3-ΔF508 cells were transferred to 27° C. three days before use, and 1 day prior to study, media were supplemented with 5 mM butyrate. For patch-clamp studies, where a constant level of functional ΔF508-CFTR was not essential, NIH/3T3-ΔF508 cells were cultured at 27° C. for 2-6 days before use. Calu-3 cells were grown and maintained as described by Hunter [1995].
I^- efflux: I^- efflux was measured as described previously [Reenstra et al., 1996]. Briefly, cells were incubated for 30 minutes with 37° C. I^- efflux buffer [(in mM) 141 NaCl, 4 KCl, 1 KH2 PO4, 0.9 MgCl2, 1.7 CaCl2. 10 N-2hydroxyethylpiperazine-N'-2-ethanesulfonic acid (HEPES), 25 glucose pH 7.4] containing 5 μCi/ml carrier-free ^125 I^- (sodium salt). Extracellular ^125 I^- was removed by washing four times with efflux buffer, and the rate of loss of intracellular ^125 I^- was determined by replacing the bathing solution with 37° C. efflux buffer every 60 seconds for 12 minutes. Time-dependent rates of ^125 I^- efflux are calculated from R=ln(^125 I^-t1 /^125 I^-t2)/(t1-t2), where ^125 I^-t is the intracellular ^125 I^- at time t and t1 and t2 are successive time points. Dose-response curves were obtained from peak rates of 125I^- efflux by nonlinear least squares fitting to R=[Ro +Rmx ·([fsk]/K1/2)]/[1+([fsk]/K1/2)], where Ro and Rmx are the rates of ^125 I efflux at zero and infinite concentration of forskolin (fsk), and K1/2 is the concentration of agonist that gives a half-maximal change.
To investigate effects of genistein on CFTR activity, the rates of I^- efflux were measured from stably transfected NIH/3T3 cells expressing wt- and ΔF508-CFTR (NIH/33-CFTR and NIH/3T3-ΔF508 cells, respectively).

[3] = 50 nM forskolin and 60 μM genistein (so in the source)
[4] = 10 μM forskolin + 50 μM genistein
[5] = 50 nM forskolin, single exponential fit

T1 sequence (P13569 whole entry): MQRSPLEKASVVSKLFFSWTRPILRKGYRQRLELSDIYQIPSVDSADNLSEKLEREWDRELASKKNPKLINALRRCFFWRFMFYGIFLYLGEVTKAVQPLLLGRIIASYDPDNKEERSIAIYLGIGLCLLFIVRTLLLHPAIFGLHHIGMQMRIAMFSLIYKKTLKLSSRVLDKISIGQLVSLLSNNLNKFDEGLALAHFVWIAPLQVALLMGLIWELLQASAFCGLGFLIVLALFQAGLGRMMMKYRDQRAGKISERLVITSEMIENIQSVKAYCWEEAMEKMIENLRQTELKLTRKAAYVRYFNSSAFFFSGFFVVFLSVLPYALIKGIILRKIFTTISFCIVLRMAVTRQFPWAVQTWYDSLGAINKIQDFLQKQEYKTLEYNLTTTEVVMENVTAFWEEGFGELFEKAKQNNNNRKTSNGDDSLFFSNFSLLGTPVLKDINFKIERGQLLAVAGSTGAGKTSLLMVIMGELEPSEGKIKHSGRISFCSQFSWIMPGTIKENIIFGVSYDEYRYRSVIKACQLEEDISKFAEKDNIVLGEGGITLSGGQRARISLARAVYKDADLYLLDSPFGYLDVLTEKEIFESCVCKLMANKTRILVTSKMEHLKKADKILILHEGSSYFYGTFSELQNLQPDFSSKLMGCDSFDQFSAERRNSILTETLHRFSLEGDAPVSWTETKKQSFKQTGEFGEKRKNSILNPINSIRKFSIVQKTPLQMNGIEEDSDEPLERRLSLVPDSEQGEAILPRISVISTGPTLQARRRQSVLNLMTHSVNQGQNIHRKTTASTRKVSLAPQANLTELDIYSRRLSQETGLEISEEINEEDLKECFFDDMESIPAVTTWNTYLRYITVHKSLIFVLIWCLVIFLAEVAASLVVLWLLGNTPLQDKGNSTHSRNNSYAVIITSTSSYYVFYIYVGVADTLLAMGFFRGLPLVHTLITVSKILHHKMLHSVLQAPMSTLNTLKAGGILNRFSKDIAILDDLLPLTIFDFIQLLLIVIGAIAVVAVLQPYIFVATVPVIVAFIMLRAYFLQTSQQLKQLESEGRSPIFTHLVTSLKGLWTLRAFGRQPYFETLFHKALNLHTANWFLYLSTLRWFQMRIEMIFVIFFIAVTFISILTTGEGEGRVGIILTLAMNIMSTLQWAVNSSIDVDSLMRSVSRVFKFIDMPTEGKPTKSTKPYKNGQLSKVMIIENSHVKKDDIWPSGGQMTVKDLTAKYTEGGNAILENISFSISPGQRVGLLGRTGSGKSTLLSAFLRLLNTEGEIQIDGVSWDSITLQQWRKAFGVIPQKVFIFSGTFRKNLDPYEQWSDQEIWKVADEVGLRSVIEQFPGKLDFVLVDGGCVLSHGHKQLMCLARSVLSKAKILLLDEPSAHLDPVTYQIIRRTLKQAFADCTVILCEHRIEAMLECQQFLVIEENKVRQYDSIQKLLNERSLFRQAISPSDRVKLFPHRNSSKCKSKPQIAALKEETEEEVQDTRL

O=c1c(-c2ccc(O)cc2)coc2cc(O)cc(O)c12 [Genistein, 4',5,7-trihydroxyisoflavone]
increase in Po by genistein ([1]; 50 nM forskolin): > 10 fold
mean closed time [1, 3]: ~ 2.5 seconds
mean open time [1, 3]: ~ 3.0 seconds
open probability Po ([1]; 50 nM forskolin plus 50 μM genistein): 0.79
open probability Po ([1]; 10 μM forskolin plus 50 μM genistein, four channels): 0.71±0.06
TC1 (short mean closed time) [1, 4]: 0.49 ± 0.08
TC2 (long mean closed time) [1, 4]: 3.76 ± 1.09
TO1 (mean open time) [1, 4]: 0.28 ± 0.11
TO2 (long mean open time) ([1]; 10 μM forskolin + 50 μM genistein, significant, <0.05): 2.10 ± 0.30
effect on long closed time ([1]; wt-CFTR, FIG. 7): dramatically decreases the long closed time
effect on I- efflux at high forskolin concentrations ([2]; 50 μM genistein, high forskolin): had no effect at high forskolin concentrations

C=C[C@@]1(C)CC(=O)[C@]2(O)[C@@]3(C)[C@@H](O)CCC(C)(C)[C@@H]3[C@H](O)[C@H](OC(C)=O)[C@@]2(C)O1 [forskolin]
TC2 ([1]; 50 nM forskolin): ~ 22 seconds
open probability Po ([1]; 50 nM forskolin): 0.07
mean closed time [1, 5]: ~ 22 seconds
mean open time [1, 5]: ~ 0.9 seconds
TC2 ([1]; 10 μM forskolin): ~ 3 seconds
open probability Po ([1]; 10 μM forskolin, four channels): 0.27±0.03
TC1 (short mean closed time) ([1]; 10 μM forskolin): 0.39 ± 0.11
TC2 (long mean closed time) ([1]; 10 μM forskolin): 2.98 ± 0.81
TO1 (mean open time) ([1]; 10 μM forskolin): 0.24 ± 0.01
TO2 (long mean open time) ([1]; 10 μM forskolin): 0.88 ± 0.09
increase of long closed time on reducing forskolin ([1]; forskolin reduced from 10 μM to 50 nM): ~ 10 fold
EC50 [2]: 110 ± 30 nM
stimulation of normal CFTR activity [2]: stimulates normal CFTR activity very well
maximal fold induction at 10 µM ([2]; mouse, read-out: maximal stimulation of I- efflux): 8.2 ± 0.4
EC50 ([2]; read-out: K1/2 of forskolin for I- efflux in presence of genistein, with 50 μM genistein, NIH/3T3-CFTR cells): 50 ± 20 nM
